Experimental data from US20090068290A1, “BIFEPRUNOX DOSES FOR TREATING SCHIZOPHRENIA” (priority 2006, published 2009).

How the values were obtained:
Type in all cases: in vivo, human
[1] = test system: adult subjects with schizophrenia; assay: PANSS negative subscale score, Clinical Study One; conditions: Risperidone 6 mg, ITT
Protocol: There were five treatment groups in this study. […] Study medication was administered once daily. After Baseline measurements were performed, the titration phase was begun. Bifeprunox treated subjects were titrated up to 5 mg, 10 mg or 20 mg according to a standardized titration schedule (Day 1: 0.125 mg, Day 2: 0.25 mg, Day 3: 0.5 mg, Day 4: 1.0 mg, Day 5: 2.0 mg, Day 6: 5.0 mg, Day 7: 10.0 mg, Day 8: 20 mg). When the assigned dose was reached, subjects were maintained at that dose for the remainder of the six-week treatment period.
The change in the Positive and Negative Symptom Scale (PANSS) total score, from baseline to endpoint, was the primary outcome measure. Secondary efficacy measures included: PANSS positive, PANSS negative, PANSS general psychopathology (GPP) score, PANSS-derived Brief Psychiatric Rating Scale (BPRS) score, Clinical Global Impressions-Severity of Illness (CGI-S), CGI-Improvement (CGI-I) scores, and responder rates. Safety and tolerability evaluations included extrapyramidal symptoms (EPS), weight gain, lipid profile, and serum prolactin.

[2] = test system: adult subjects with schizophrenia; assay: PANSS positive symptom subscale score, Clinical Study Two; conditions: Risperidone 6 mg, LOCF, ITT
Protocol: Rating scale assessments were performed weekly, except for week 5, to measure the change from baseline to endpoint of the PANSS total score. Other assessments included: PANSS positive symptom subscale score, PANSS negative symptom subscale score, PANSS general pschopathology subscale score, BPRS total score, BPRS psychosis score, the CGI-S score, the CGI-I score, responder rates based on the PANSS total score, and the Calgary Depression Scale for Schizophrenia (CDSS). […]
Subjects who completed this study had the option to continue in the long-term. […] Risperidone-treated subjects were titrated from 2 mg to 6 mg daily over a three-day period and were subsequently maintained at 6 mg/day for the remainder of the treatment period. […] Blood samples were also obtained at Screening/Baseline, Week 3, and Week 6 for clinical laboratory assessments.

[3] = test system: adult subjects with schizophrenia; assay: PANSS responder rate, Clinical Study Two; conditions: risperidone 6 mg
Protocol: Notable differences were also observed between the 30 mg bifeprunox group and placebo for the change from baseline to endpoint in PANSS general psychopathology subscale score, BPRS total score, BPRS psychosis cluster score, PANSS responder rate, and CGI-I responder rate. […] A CGI-I responder refers to a subject who was categorized as “very much improved” or “much improved” in the CGI Global Improvement scale at endpoint. […]
Subjects who completed this study had the option to continue in the long-term. […] Risperidone-treated subjects were titrated from 2 mg to 6 mg daily over a three-day period and were subsequently maintained at 6 mg/day for the remainder of the treatment period. […] Blood samples were also obtained at Screening/Baseline, Week 3, and Week 6 for clinical laboratory assessments. […]

[4] = test system: adult subjects with schizophrenia; assay: PANSS general psychopathology subscale score, Clinical Study Three; conditions: LOCF; for Change from Baseline in PASS General Psychopathology Subscale Score, Mean (SD) / Change from Baseline in PASS General Psychopathology Subscale Score, Median: Olanzapine 15 mg, ITT population
Text: (§1) SECONDARY OBJECTIVES To assess the efficacy of bifeprunox in treating schizophrenia using the Positive Symptom sub-scale score of the PANSS, the Negative Symptom sub-scale score of the PANSS, the General Psychopathology sub-scale of the PANSS, Brief Psychiatric Rating Scale (BPRS) total score derived from the PANSS, BPRS psychosis score derived from the PANSS, the Clinical Global Impression Severity of Illness score (CGI-S), the Clinical Global Impression Improvement score (CGI-I), CGI-I responder rate, PANSS responder rate based on the PANSS total score, Calgary Depression Scale for Schizophrenia (CDSS), and Subject Satisfaction rating.
(§2) There were four treatment arms in this study, approximately 144 subjects per arm. […] After completing the Single-Blind Placebo Lead-in Period of at least three days, bifeprunox-treated subjects were titrated from 0.25 mg up to 20 mg/day or 30 mg/day according to a standardized titration scheme over a seven- or eight-day period, respectively. When the assigned dose was reached, subjects were maintained at that dose for the remainder of the six week treatment period. […] Subjects were hospitalized (if not already inpatients) after eligibility for study entry was verified, starting from the Screening Visit until at least 10 days after Baseline. Subjects could be hospitalized longer than 10 days if considered medically necessary by the Investigator. Rating scale assessments for efficacy and abnormal movement disorders were done weekly except for Week 5. […] Subject satisfaction with study medication was assessed at Week 6.

[5] = test system: adult subjects with schizophrenia; assay: PANSS negative symptom subscale score, Clinical Study Three; conditions: LOCF; for Change from Baseline in PANSS Negative Symptom Subscale Score, Mean (SD) / Change from Baseline in PANSS Negative Symptom Subscale Score, Median: Olanzapine 15 mg, ITT population
Text: as §1, §2

Cc1nc2n(c(=O)c1CCN1CCC(c3noc4cc(F)ccc34)CC1)CCCC2 [Risperidone, risperidone, reference compound]
Change from Baseline in PANSS Negative Subscale Score, Mean (S.D.) ([1]; Endpoint LOCF): −3.6 (4.6) | Change from Baseline in PANSS Negative Subscale Score, Median ([1]; Endpoint LOCF): −3 | Change from Baseline in PANSS Negative Subscale Score, Mean (S.D.) ([1]; Week 1, LOCF): −2.1 (3.5) | Change from Baseline in PANSS Negative Subscale Score, Median ([1]; Week 1, LOCF): −1 | Change from Baseline in PANSS Negative Subscale Score, Mean (S.D.) ([1]; Week 2, LOCF): −3.0 (4.2) | Change from Baseline in PANSS Negative Subscale Score, Median ([1]; Week 2, LOCF): −3 | Change from Baseline in PANSS Negative Subscale Score, Mean (S.D.) ([1]; Week 3, LOCF): −3.5 (4.2) | Change from Baseline in PANSS Negative Subscale Score, Median ([1]; Week 3, LOCF): −3 | Change from Baseline in PANSS Negative Subscale Score, Mean (S.D.) ([1]; Week 4, LOCF): −3.2 (4.3) | Change from Baseline in PANSS Negative Subscale Score, Median ([1]; Week 4, LOCF): −3 | Change from Baseline in PANSS Positive Symptom Subscale Score, Mean (SD) ([2]; Week 1): −3.3 (3.6) | Change from Baseline in PANSS Positive Symptom Subscale Score, Median ([2]; Week 1): −3 | Change from Baseline in PANSS Positive Symptom Subscale Score, Mean (SD) ([2]; Week 2): −5.3 (4.7) | Change from Baseline in PANSS Positive Symptom Subscale Score, Median ([2]; Week 2): −5 | Change from Baseline in PANSS Positive Symptom Subscale Score, Mean (SD) ([2]; Week 3): −6.3 (5.3) | Change from Baseline in PANSS Positive Symptom Subscale Score, Median ([2]; Week 3): −6 | Change from Baseline in PANSS Positive Symptom Subscale Score, Mean (SD) ([2]; Week 4): −7.0 (5.6) | Change from Baseline in PANSS Positive Symptom Subscale Score, Median ([2]; Week 4): −7 | Change from Baseline in PANSS Positive Symptom Subscale Score, Mean (SD) ([2]; Week 6/Endpoint): −7.2 (6.6) | Change from Baseline in PANSS Positive Symptom Subscale Score, Median ([2]; Week 6/Endpoint): −7 | PANSS 20% responder rate ([3]; Endpoint LOCF): 54% | PANSS 30% responder rate ([3]; Endpoint LOCF): 31% | PANSS Responder at Endpoint, 30% Definition Responder, No ([3]; LOCF, ITT): 104 (69%) n (%) | PANSS Responder at Endpoint, 30% Definition Responder, Yes ([3]; LOCF, ITT): 47 (31%) n (%) | PANSS Responder at Week 6/Endpoint, 20% Definition, No ([3]; LOCF, ITT): 69 (46%) n (%) | PANSS Responder at Week 6/Endpoint, 20% Definition, Yes ([3]; LOCF, ITT): 78 (54%) n (%)

Cc1cc2c(s1)Nc1ccccc1N=C2N1CCN(C)CC1 [Olanzapine, olanzapine, reference compound]
Change from Baseline in PASS General Psychopathology Subscale Score, Mean (SD) ([4]; Week 1): −4.5 (6.2) | Change from Baseline in PASS General Psychopathology Subscale Score, Median ([4]; Week 1): −3 | Change from Baseline in PASS General Psychopathology Subscale Score, Mean (SD) ([4]; Week 2): −7.2 (7.8) | Change from Baseline in PASS General Psychopathology Subscale Score, Median ([4]; Week 2): −6 | Change from Baseline in PASS General Psychopathology Subscale Score, Mean (SD) ([4]; Week 3): −9.3 (8.3) | Change from Baseline in PASS General Psychopathology Subscale Score, Median ([4]; Week 3): −8 | Change from Baseline in PASS General Psychopathology Subscale Score, Mean (SD) ([4]; Week 4): −9.6 (8.6) | Change from Baseline in PASS General Psychopathology Subscale Score, Median ([4]; Week 4): −9 | Change from Baseline in PASS General Psychopathology Subscale Score, Mean (SD) ([4]; Week 6/Endpoint): −10.5 (9.4) | Change from Baseline in PASS General Psychopathology Subscale Score, Median ([4]; Week 6/Endpoint): −9 | mean change (SD) from Baseline to Endpoint in PANSS general psychopathology subscale score ([4]; olanzapine 15 mg, ITT): −10.5 (9.4) | Change from Baseline in PANSS Negative Symptom Subscale Score, Mean (SD) ([5]; Week 1): −1.8 (3.1) | Change from Baseline in PANSS Negative Symptom Subscale Score, Median ([5]; Week 1): −1 | Change from Baseline in PANSS Negative Symptom Subscale Score, Mean (SD) ([5]; Week 2): −3.0 (3.8) | Change from Baseline in PANSS Negative Symptom Subscale Score, Median ([5]; Week 2): −3 | Change from Baseline in PANSS Negative Symptom Subscale Score, Mean (SD) ([5]; Week 3): −4.0 (4.8) | Change from Baseline in PANSS Negative Symptom Subscale Score, Median ([5]; Week 3): −3 | Change from Baseline in PANSS Negative Symptom Subscale Score, Mean (SD) ([5]; Week 4): −4.0 (4.9) | Change from Baseline in PANSS Negative Symptom Subscale Score, Median ([5]; Week 4): −4 | Change from Baseline in PANSS Negative Symptom Subscale Score, Mean (SD) ([5]; Week 6/Endpoint): −4.6 (5.2) | Change from Baseline in PANSS Negative Symptom Subscale Score, Median ([5]; Week 6/Endpoint): −4 | mean change (SD) from Baseline to Endpoint in PANSS Negative Symptom subscale score ([5]; olanzapine 15 mg, ITT): −4.6 (5.2)
